These results are taken from PMC10709327, “A class of secreted mammalian peptides with potential to expand cell-cell communication” (Nature Communications, 2023).

The subject of this test is diet-induced obese male mice. The test can be described thus: 3-day food intake and body weight under daily dosing. As to conditions: for Food Intake: 50 mg/kg. The test is classed as in vivo, mouse. The method, then:
Fig. 5 Functional studies of […] in feeding and energy balance in mice. a Schematic of the primary amino acid sequence for full-length mouse GDF15 preproprotein and annotation of CAP-GDF15 sequence as well as the canonical GDF15 hormone sequence. b–d Food intake (b), respiratory exchange ratio (RER, c), and ambulatory activity (d) of 12–16-week diet-induced obese male mice following a single treatment of CAP-GDF15 (50 mg/kg, intraperitoneal) or vehicle control. e–g Food intake (e), RER (f), and ambulatory activity (g) of 12–16-week diet-induced obese male mice following a single treatment of scrambled CAP-GDF15 (50 mg/kg, intraperitoneal, scrambled sequence: pGlu-[…]-NH2) or vehicle control. h, i 3-day food intake (h) and body weight (i) of 12–16-week diet-induced obese male mice following treatment with CAP-GDF15 or scrambled CAP-GDF15 (50 mg/kg/day, IP), or vehicle control. Data are shown as means ± SEM. b–d, N = 12 mice/group; for e, f N = 8 mice/group; for h N = 7 food cages for vehicle and CAP-GDF15 groups and N = 5 for the scrambled peptide group; for i N = 14 mice for the vehicle group, N = 13 for the CAP-GDF15 group, and N = 5 for the scrambled peptide group. b–i injection occurred at time T = 0 (5:00 pm) and data were collected for the following 16 hrs. For (b-i), p values were calculated by two-way ANOVA. Source data are provided as a Source Data file.
Lastly, to determine whether the acute food intake suppressive effects of CAP-GDF15 would lead to long-term suppression of feeding and obesity, we administered CAP-GDF15 or scrambled CAP-GDF15 (50 mg/kg/day, IP), or vehicle control to diet-induced obese mice. Food intake and body weight were monitored over a three-day period. A durable suppression of food intake in CAP-GDF15-treated mice was over the three-day experiment (Vehicle, 7.3 ± 0.5 g/mouse; […], 4.1 ± 0.9 g/mouse/day, P < 0.05, Fig. 5h). Consequently, and as expected, an increasing reduction in body weight was also detected (Vehicle, +0.1 ± 0.3 g/mouse; CAP-GDF15, −1.9 ± 0.3 g/mouse, P < 0.001, Fig. 5i). Importantly, mice treated with the scrambled CAP-GDF15 peptide were indistinguishable in body weight or food intake from control mice (P > 0.05 versus vehicle-treated mice, Fig. 5h, i).
Animal experiments were performed according to a procedure approved by the Stanford University Administrative Panel on Laboratory Animal Care. Mice were maintained in 12-h light-dark cycles at 22 °C and about 50% relative humidity and fed a standard irradiated rodent diet. Where indicated, a high-fat diet (D12492, Research Diets 60% kcal from fat) was used. Male C57BL/6 J (stock number 000664) and male C57BL/6 J DIO mice were purchased from the Jackson Laboratory (stock number 380050). For studies in high-fat diet-fed mice, peptides were dissolved in 18:1:1 (by volume) of saline:Kolliphor EL (Sigma Aldrich):DMSO and administered to mice by intraperitoneal injections at a volume of 10 µl/g at the indicated doses for the indicated times. For lipopolysacchardide injection, LPS (Sigma, #L2880-10MG) was dissolved in saline and administered to mice at a volume of 5 µl/g at indicated dose. For fasting, food was removed from mice for 16 h. For running, a six-lane Columbus Instruments animal treadmill (product 1055-SRM-D65) was used with following 1 h protocol: 10 min at 6 m/min, 50 min at 18 m/min, and increase every 2 min by 2 m/min for the last 10 minutes, all at 12° incline. For all treatment experiments, mice were mock injected with the vehicle for 3–5 days until body weights were stabilized. Heparin plasma was harvested by submandibular bleed. For all experiments, mice were randomly assigned to treatment groups. Experimenters were not blinded to groups.

Each structure is given as a SMILES string. Where a SMILES comes first, the peptide text is derived from it. [ ]: non-standard residue; d: D form. pGlu = O=C1CC[C@@H](C(=O)O)N1

In the case of `CC(C)C[C@H](NC(=O)[C@@H]1CCC(=O)N1)C(=O)N[C@@H](CCC(=O)O)C(=O)N[C@@H](CC(C)C)C(=O)N[C@@H](CCCNC(=N)N)C(=O)N[C@@H](CC(C)C)C(=O)N[C@@H](CCCNC(=N)N)C(=O)N[C@H](C(=O)N[C@@H](C)C(=O)N[C@@H](C)C(=O)NCC(=O)N[C@@H](CCCNC(=N)N)C(N)=O)C(C)C` [CAP-GDF15] ([pGlu]LELRLRVAAGR-NH2), the “Food Intake” value (24 h, individual animal 1) turned out to be 0.5 g; the “Food Intake” value (24 h, individual animal 2) turned out to be 2.2 g; the “Food Intake” value (24 h, individual animal 3) came to 1.3 g; the “Food Intake” value (24 h, individual animal 4) came out at 1.4 g; the “Food Intake” value (24 h, individual animal 5) came out at 0.3 g; the “Food Intake” value (24 h, individual animal 6) was determined as 0.825 g. Further, the “Food Intake” value is, setting by setting: (24 h, individual animal 7) 0.525 g; (48 h, individual animal 1) 1.2 g; (48 h, individual animal 2) 5 g; (48 h, individual animal 3) 2.9 g; (48 h, individual animal 4) 4.1 g; (48 h, individual animal 5) 0.6 g. The “Food Intake” value (48 h, individual animal 6) came to 1.8 g; the “Food Intake” value (48 h, individual animal 7) is given as 1.325 g; the “Food Intake” value (72 h, individual animal 1) is 2.9 g; the “Food Intake” value (72 h, individual animal 2) turned out to be 7.8 g; the “Food Intake” value (72 h, individual animal 3) was 4.9 g; the “Food Intake” value (72 h, individual animal 4) is listed as 6.7 g. For the same compound, the “Food Intake” value is given as 0.8 g (72 h, individual animal 5); 2.95 g (72 h, individual animal 6); 2.775 g (72 h, individual animal 7). Where the note is “50 mg/kg/day IP, diet-induced obese mice, mean ± SEM, N = 13 mice”, the “body weight change over three days” value is given as −1.9 ± 0.3 g/mouse.
